Assay results: patent US9765074B2, “Inhibitors of the renal outer medullary potassium channel” (Merck Sharp & Dohme Corp., priority 2013, dated 2017)

Target: T1, hROMK (hKir1.1) (Homo sapiens, UniProt P48048)
T1 construct: expressed in transfected cells
T1 sequence (P48048 1-391): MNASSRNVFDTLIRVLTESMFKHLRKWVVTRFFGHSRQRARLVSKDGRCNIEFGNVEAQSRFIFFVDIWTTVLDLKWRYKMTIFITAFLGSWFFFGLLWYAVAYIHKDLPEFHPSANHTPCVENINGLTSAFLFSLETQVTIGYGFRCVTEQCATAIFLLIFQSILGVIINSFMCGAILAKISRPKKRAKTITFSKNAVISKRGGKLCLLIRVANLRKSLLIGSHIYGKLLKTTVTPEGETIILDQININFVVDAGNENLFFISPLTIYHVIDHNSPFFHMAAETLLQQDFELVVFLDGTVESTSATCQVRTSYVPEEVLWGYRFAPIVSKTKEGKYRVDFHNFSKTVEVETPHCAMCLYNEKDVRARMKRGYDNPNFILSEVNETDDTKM
Assay: Thallium Flux Assay (ROMK channel functional thallium flux, FLIPR-Tetra)
Format: cell-based
Settings: HEK293 cells stably expressing hROMK (hKir1.1); 30 min compound incubation
How it was run: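 Thallium flux read by FluxOR fluorescence ([…]) for ~10 min after adding 3 mM Tl+/0.3 mM K+ final. Stable HEK-hKir1.1 cells were dye-loaded 90 min, exposed to compound 30 min at room temperature in ouabain/probenecid buffer; IC50 relative to a 3 μM control inhibitor.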

IC50	Compound
30 nM	CC1=CN(C2=C(C)C(=O)OC2)C(=O)C12CCN(CCc1nnc(-n3cnnn3)cc1C)CC2 [Example 256, 4-methyl-2-(4-methyl-5-oxo-2,5-dihydrofuran-3-yl)-8-{2-[4-methyl-6-(1H-tetrazol-1-yl)pyridazin-3-yl]ethyl}-1-oxo-2-aza-8-azoniaspiro[4.5]dec-3-ene]
80 nM	CC1=C(N2CCC3(CCN(C[C@H](O)c4cc(C)c(-n5cnnn5)nn4)CC3)C2=O)COC1=O [Example 128, 8-{(2S)-2-hydroxy-2-[5-methyl-6-(1H-tetrazol-1-yl)pyridazin-3-yl]ethyl}-2-(4-methyl-5-oxo-2,5-dihydrofuran-3-yl)-1-oxo-2-aza-8-azoniaspiro[4.5]decane]
10 nM	CC1=C(N2CCC3(CCN(CCc4cnc(-n5cnnn5)cn4)CC3)C2=O)COC1=O [Example 234, 2-(4-methyl-5-oxo-2,5-dihydrofuran-3-yl)-1-oxo-8-{2-[5-(1H-tetrazol-1-yl)pyrazin-2-yl]ethyl}-2-aza-8-azoniaspiro[4.5]decane]
20 nM	CC1=C(N2CCC3(CCN(CCc4cc(C)c(-n5cnnn5)nn4)CC3)C2=O)COC1=O [Example 237, 2-(4-methyl-5-oxo-2,5-dihydrofuran-3-yl)-8-{2-[5-methyl-6-(1H-tetrazol-1-yl)pyridazin-3-yl]ethyl}-1-oxo-2-aza-8-azoniaspiro[4.5]decane]
40 nM	CC1=C(N2CCC3(CCN(C[C@H](O)c4ncc(-n5cnnn5)nc4C)CC3)C2=O)COC1=O [Example 98, 8-{(2S)-2-hydroxy-2-[3-methyl-5-(1H-tetrazol-1-yl)pyrazin-2-yl]ethyl}-2-(4-methyl-5-oxo-2,5-dihydrofuran-3-yl)-1-oxo-2-aza-8-azoniaspiro[4.5]decane]
10 nM	CC1=C(N2C(=O)C3(CCN(C[C@H](O)c4ccc(-n5cnnn5)nc4)CC3)CC2C)COC1=O (single isomer, unassigned) [Example 66]
20 nM	CC1=C(N2C(=O)C3(CCN(C[C@H](O)c4ccc(-n5cnnn5)nc4C)CC3)CC2C)COC1=O (mixture of isomers) [Example 56, 8-{(2R)-2-hydroxy-2-[2-methyl-6-(1H-tetrazol-1-yl)pyridin-3-yl]ethyl}-3-methyl-2-(4-methyl-5-oxo-2,5-dihydrofuran-3-yl)-1-oxo-2-aza-8-azoniaspiro[4.5]decane]
40 nM	CC1=C(N2C(=O)C3(CCN(C[C@@H](O)c4ccc(-n5cnnn5)nc4)CC3)CC2C)COC1=O (single isomer, unassigned) [Example 63]
4 nM	CC1=C(N2C=CC3(CCN([C@H](C)Cc4nnc(-n5cnnn5)cc4C)CC3)C2=O)COC1=O (single isomer, unassigned) [Example 275]
180 nM	CC1=C(N2CCC3(CCN(C[C@H](O)c4ccc(-n5cnnn5)nc4C)CC3F)C2=O)COC1=O (single isomer, unassigned) [Example 118]
80 nM	CC1=C(N2CCC3(CCN(C[C@H](O)c4ccc(-n5cnnn5)nn4)CC3F)C2=O)COC1=O (single isomer, unassigned) [Example 183]
80 nM	CC1=C(N2CCC3(CCN(C[C@@H](F)c4cnc(-n5cnnn5)cn4)CC3)C2=O)COC1=O [Example 277, 8-{(2R)-2-fluoro-2-[5-(1H-tetrazol-1-yl)pyrazin-2-yl]ethyl}-2-(4-methyl-5-oxo-2,5-dihydrofuran-3-yl)-1-oxo-2-aza-8-azoniaspiro[4.5]decane]
70 nM	CC1=C(N2CCC3(CCN(C[C@@H](O)c4cc(-n5cnnn5)ccn4)CC3)C2=O)COC1=O [Example 71, 8-{(2R)-2-hydroxy-2-[4-(1H-tetrazol-1-yl)pyridin-2-yl]ethyl}-2-(4-methyl-5-oxo-2,5-dihydrofuran-3-yl)-1-oxo-2-aza-8-azoniaspiro[4.5]decane]
10 nM	O=C1C=C(N2CCC3(CCN(C[C@H](O)c4ccc(-n5cnnn5)nc4)CC3)C2=O)CO1 [Example 1, 8-{(2R)-2-Hydroxy-2-[6-(1H-tetrazol-1-yl)pyridin-3-yl]ethyl}-1-oxo-2-(5-oxo-2,5-dihydrofuran-3-yl)-2-aza-8-azoniaspiro[4.5]decane]
10 nM	Cc1nc(-n2cnnn2)cnc1C(O)CN1CCC2(CC1)C[C@H](C)N(C1=CC(=O)OC1)C2=O (mixture of isomers) [Example 165, (3S)-8-{2-hydroxy-2-[3-methyl-5-(1H-tetrazol-1-yl)pyrazin-2-yl]ethyl}-3-methyl-2-(5-oxo-2,5-dihydrofuran-3-yl)-2,8-diazaspiro[4.5]decan-1-one]
50 nM	CC1=C(N2CCC3(CCN(C[C@H](F)c4cnc(-n5cnnn5)cn4)CC3)C2=O)COC1=O [Example 276, (S)-8-(2-(5-(1H-Tetrazol-1-yl)pyrazin-2-yl)-2-fluoroethyl)-2-(4-methyl-5-oxo-2,5-dihydrofuran-3-yl)-2,8-diazaspiro[4.5]decan-1-one]
40 nM	CC1=C(N2CCC3(CCN(C[C@@H](O)c4cnc(-n5cnnn5)c(C)n4)CC3)C2=O)COC1=O [Example 88, 8-{(2R)-2-hydroxy-2-[6-methyl-5-(1H-tetrazol-1-yl)pyrazin-2-yl]ethyl}-2-(4-methyl-5-oxo-2,5-dihydrofuran-3-yl)-1-oxo-2-aza-8-azoniaspiro[4.5]decane]
100 nM	COC1CN(CCc2ccc(-n3cnnn3)nn2)CCC12CCN(C1=C(C)C(=O)OC1)C2=O (single isomer, unassigned) [Example 257, 6-methoxy-2-(4-methyl-5-oxo-2,5-dihydrofuran-3-yl)-8-{2-[6-(1H-tetrazol-1-yl)pyridazin-3-yl]ethyl}-2,8-diazaspiro[4.5]decan-1-one]
70 nM	COC1CN(C[C@@H](O)c2ccc(-n3cnnn3)nc2)CCC12CCN(C1=C(C)C(=O)OC1)C2=O (single isomer, unassigned) [Example 177]
50 nM	CC1=CC2(CCN(C[C@H](O)c3ccc(-n4cnnn4)nn3)CC2)C(=O)N1C1=CC(=O)OC1 [Example 188, 8-{(2S)-2-hydroxy-2-[6-(1H-tetrazol-1-yl)pyridazin-3-yl]ethyl}-3-methyl-2-(5-oxo-2,5-dihydrofuran-3-yl)-2,8-diazaspiro[4.5]dec-3-en-1-one]
160 nM	CC1=C(N2CCC3(CCN(C[C@@H](O)c4ncc(-n5cnnn5)cn4)CC3)C2=O)COC1=O [Example 41, 8-{(2R)-2-hydroxy-2-[5-(1H-tetrazol-1-yl)pyrimidin-2-yl]ethyl}-2-(4-methyl-5-oxo-2,5-dihydrofuran-3-yl)-1-oxo-2-aza-8-azoniaspiro[4.5]decane]
100 nM	CC1=CC2(CCN(C[C@H](O)c3cnc(-n4cnnn4)cn3)CC2)C(=O)N1C1=CC(=O)OC1 [Example 187, 8-{(2S)-2-hydroxy-2-[5-(1H-tetrazol-1-yl)pyrazin-2-yl]ethyl}-3-methyl-2-(5-oxo-2,5-dihydrofuran-3-yl)-2,8-diazaspiro[4.5]dec-3-en-1-one]
20 nM	CC1=C(N2CCC3(CCN(C[C@H](O)c4cnc(-n5cnnn5)cn4)CC3)C2=O)COC1=O [Example 24, 8-{(2S)-2-hydroxy-2-[5-(1H-tetrazol-1-yl)pyrazin-2-yl]ethyl}-2-(4-methyl-5-oxo-2,5-dihydrofuran-3-yl)-1-oxo-2-aza-8-azoniaspiro[4.5]decane]
10 nM	CC1=C(N2CCC3(CCN(C[C@H](O)c4ccc(-n5cnnn5)nc4)CC3F)C2=O)COC1=O (single isomer, unassigned) [Example 192]
10 nM	CC1=C(N2CCC3(CCN(C[C@@H](O)c4ccc(-n5cnnn5)nc4)CC3F)C2=O)COC1=O (single isomer, unassigned) [Example 195]
50 nM	CC1=C(N2CCC3(CCN(C[C@H](O)c4ccc(-n5cnnn5)c(C#N)c4)CC3)C2=O)COC1=O [Example 95, 8-{(2R)-2-[3-cyano-4-(1H-tetrazol-1-yl)phenyl]-2-hydroxyethyl}-2-(4-methyl-5-oxo-2,5-dihydrofuran-3-yl)-1-oxo-2-aza-8-azoniaspiro[4.5]decane]
20 nM	Cc1nc(-n2cnnn2)ccc1[C@@H](O)CN1CCC2(CC1)CCN(C1=CC(=O)OC1)C2=O [Example 3, 8-{(2R)-2-hydroxy-2-[2-methyl-6-(1H-tetrazol-1-yl)pyridin-3-yl]ethyl}-1-oxo-2-(5-oxo-2,5-dihydrofuran-3-yl)-2-aza-8-azoniaspiro[4.5]decane]
60 nM	CC1=C(N2C(=O)C3(CCN(C[C@H](O)c4ccc(-n5cnnn5)nn4)CC3)CC2C)COC1=O (single isomer, unassigned) [Example 123]
4 nM	CC1=C(N2CCC3(CCN(CCc4nnc(-n5cnnn5)cc4C)CC3)C2=O)COC1=O [Example 236, 2-(4-methyl-5-oxo-2,5-dihydrofuran-3-yl)-8-{2-[4-methyl-6-(1H-tetrazol-1-yl)pyridazin-3-yl]ethyl}-1-oxo-2-aza-8-azoniaspiro[4.5]decane]

Compound	IC50
CC1=C(N2CC(O)C3(CC4CCC(C3)N4C[C@H](O)c3ccc(-n4cnnn4)nc3)C2=O)COC1=O (single isomer, unassigned) [Example 106]	60 nM
CC1=C(N2C(=O)C3(CC2C)CC2CCC(C3)N2C[C@H](O)c2ccc(-n3cnnn3)nc2)COC1=O (single isomer, unassigned) [Example 135]	50 nM
CC1=C(N2C(=O)C3(CC2C)CC2CCC(C3)N2C[C@@H](O)c2ccc(-n3cnnn3)nc2)COC1=O (single isomer, unassigned) [Example 136]	80 nM
